In brackets after ≈: the same amount, converted by molar mass.
Tests used:
Experiment in all cases: In vitro antibacterial evaluation: minimum inhibitory concentration (MIC), broth dilution method
Type in all cases: cell-based
Conditions in all cases: 18 hours at 35° C.
Staphylococcus sp. = test system: Staphylococcus sp.
How it was run: (§1)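 Test strains, among them recent clinical isolates carrying methicillin, penicillin and/or vancomycin resistance, were inoculated at 5×10^5 CFU/mL. A broth dilution series spanning 64-0.06 μg/mL in Muller-Hinton II […] (NCCLS M7-A2) defined the MIC as the lowest growth-inhibiting concentration.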

Escherichia coli = test system: Escherichia coli
How it was run: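 Values are minimum inhibitory concentrations, meaning the smallest antibiotic concentration that stops growth of the organism. They come from broth dilution in Muller-Hinton II […] per NCCLS guidance (M7-A2), using 5×10^5 CFU/mL and concentrations from 64 to 0.06 μg/mL.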

Streptococcus sp. = test system: Streptococcus sp.
How it was run: as §1

Enterococcus sp. = test system: Enterococcus sp.
How it was run: as §1

[1] = broth dilution, inoculum 5×10^5 CFU/mL

CC(c1ccccc1)C1NC(=O)CNC(=O)C(CO)NC(=O)C(C(O)C2CNC(=N)N2C2OC(CO)C(O)C(O)C2O)NC(=O)C(C(O)C2CNC(=N)N2)NC(=O)C(Cc2ccc(OC3OC(CO)C(OC4OC(CO)C(OCC=C(c5ccccc5)c5ccccc5)C(O)C4O)C(O)C3O)cc2)NC1=O (stereo not drawn) [Example 241a, Cyclo[glycyl-β-methylphenylalanyl-O-[4-O-[4-O-(3,3-diphenylprop-2-en-1-yl)hexopyranosyl]-hexopyranosyl]tyrosyl-3-(2-iminoimidazolidin-4-yl)seryl-3-[3-hexopyranosyl-2-iminoimidazolidin-4-yl)serylseryl]]
MIC Coagulase Negative Staphylococcus (GC 4547) (Staphylococcus sp.; Coagulase Negative Staphylococcus (GC 4547)): 4 µg/mL (≈ 2.69 µM)
MIC Coagulase Negative Staphylococcus (GC 4548) (Staphylococcus sp.; Coagulase Negative Staphylococcus (GC 4548)): 2 µg/mL (≈ 1.34 µM)
MIC Coagulase Negative Staphylococcus (GC 4549) (Staphylococcus sp.; Coagulase Negative Staphylococcus (GC 4549)): 1 µg/mL (≈ 0.672 µM)
MIC Coagulase Negative Staphylococcus (GC 4551) (Staphylococcus sp.; Coagulase Negative Staphylococcus (GC 4551)): 4 µg/mL (≈ 2.69 µM)
MIC Coagulase Negative Staphylococcus (GC 6257) (Staphylococcus sp.; Coagulase Negative Staphylococcus (GC 6257)): 1 µg/mL (≈ 0.672 µM)
MIC Staphylococcus aureus (ATCC 29213) (Staphylococcus sp.; Staphylococcus aureus (ATCC 29213)): 2 µg/mL (≈ 1.34 µM)
MIC Staphylococcus aureus (GC 1131) (Staphylococcus sp.; Staphylococcus aureus (GC 1131)): 2 µg/mL (≈ 1.34 µM)
MIC Staphylococcus aureus (GC 3051) (Staphylococcus sp.; Staphylococcus aureus (GC 3051)): 2 µg/mL (≈ 1.34 µM)
MIC Staphylococcus aureus (GC 3053) (Staphylococcus sp.; Staphylococcus aureus (GC 3053)): 2 µg/mL (≈ 1.34 µM)
MIC Staphylococcus aureus (GC 4541) (Staphylococcus sp.; Staphylococcus aureus (GC 4541)): 2 µg/mL (≈ 1.34 µM)
MIC Staphylococcus aureus (GC 4542) (Staphylococcus sp.; Staphylococcus aureus (GC 4542)): 2 µg/mL (≈ 1.34 µM)
MIC Staphylococcus aureus (GC 4544) (Staphylococcus sp.; Staphylococcus aureus (GC 4544)): 4 µg/mL (≈ 2.69 µM)
MIC Staphylococcus aureus (GC 4545) (Staphylococcus sp.; Staphylococcus aureus (GC 4545)): 2 µg/mL (≈ 1.34 µM)
MIC Staphylococcus aureus-SMITH (GC 4543) (Staphylococcus sp.; Staphylococcus aureus-SMITH (GC 4543)): 2 µg/mL (≈ 1.34 µM)
MIC Staphylococcus haemolyticus (GC 4546) (Staphylococcus sp.; Staphylococcus haemolyticus (GC 4546)): 2 µg/mL (≈ 1.34 µM)
MIC Escherichia coli (ATCC 25922) (Escherichia coli; Escherichia coli (ATCC 25922)): >64 µg/mL
MIC Escherichia coli (GC 4559) (Escherichia coli; Escherichia coli (GC 4559)): >64 µg/mL
MIC Escherichia coli (GC 4560) (Escherichia coli; Escherichia coli (GC 4560)): 2 µg/mL (≈ 1.34 µM)
MIC Streptococcus agalactiae (GC 4564) (Streptococcus sp.; Streptococcus agalactiae (GC 4564)): <0.06 µg/mL
MIC Streptococcus pneumoniae (ATCC 6301) (Streptococcus sp.; Streptococcus pneumoniae (ATCC 6301)): <0.06 µg/mL
MIC Streptococcus pneumoniae (GC 1894) (Streptococcus sp.; Streptococcus pneumoniae (GC 1894)): <0.06 µg/mL
MIC Streptococcus pneumoniae (GC 4565) (Streptococcus sp.; Streptococcus pneumoniae (GC 4565)): <0.06 µg/mL
MIC Streptococcus pyogenes (GC 4563) (Streptococcus sp.; Streptococcus pyogenes (GC 4563)): <0.06 µg/mL
MIC Streptococcus agalactiae (GC 4564) (Streptococcus sp.; [1]): <0.06 µg/mL
MIC Streptococcus pneumoniae (ATCC 6301) (Streptococcus sp.; [1]): <0.06 µg/mL
MIC Streptococcus pneumoniae (GC 1894) (Streptococcus sp.; [1]): <0.06 µg/mL
MIC Streptococcus pneumoniae (GC 4565) (Streptococcus sp.; [1]): <0.06 µg/mL
MIC Streptococcus pyogenes (GC 4563) (Streptococcus sp.; [1]): <0.06 µg/mL
MIC Enterococcus avium (GC 4558) (Enterococcus sp.; Enterococcus avium (GC 4558)): 2 µg/mL (≈ 1.34 µM)
MIC Enterococcus faecalis (ATCC 29212) (Enterococcus sp.; Enterococcus faecalis (ATCC 29212)): 4 µg/mL (≈ 2.69 µM)
MIC Enterococcus faecalis (GC 2242) (Enterococcus sp.; Enterococcus faecalis (GC 2242)): 4 µg/mL (≈ 2.69 µM)
MIC Enterococcus faecalis (GC 2691) (Enterococcus sp.; Enterococcus faecalis (GC 2691)): 2 µg/mL (≈ 1.34 µM)
MIC Enterococcus faecalis (GC 3059) (Enterococcus sp.; Enterococcus faecalis (GC 3059)): 2 µg/mL (≈ 1.34 µM)
MIC Enterococcus faecalis (GC 4552) (Enterococcus sp.; Enterococcus faecalis (GC 4552)): 4 µg/mL (≈ 2.69 µM)
MIC Enterococcus faecalis (GC 4553) (Enterococcus sp.; Enterococcus faecalis (GC 4553)): 4 µg/mL (≈ 2.69 µM)
MIC Enterococcus faecalis (GC 4554) (Enterococcus sp.; Enterococcus faecalis (GC 4554)): 4 µg/mL (≈ 2.69 µM)
MIC Enterococcus faecalis (GC 6189) (Enterococcus sp.; Enterococcus faecalis (GC 6189)): 2 µg/mL (≈ 1.34 µM)
MIC Enterococcus faecium (GC 2243) (Enterococcus sp.; Enterococcus faecium (GC 2243)): 2 µg/mL (≈ 1.34 µM)
MIC Enterococcus faecium (GC 4556) (Enterococcus sp.; Enterococcus faecium (GC 4556)): 2 µg/mL (≈ 1.34 µM)
MIC Enterococcus faecium (GC 4557) (Enterococcus sp.; Enterococcus faecium (GC 4557)): 2 µg/mL (≈ 1.34 µM)
MIC Enterococcus faecalis (GC 2242) (Enterococcus sp.; [1]): 4 µg/mL (≈ 2.69 µM)
MIC Enterococcus faecalis (GC 2691) (Enterococcus sp.; [1]): 2 µg/mL (≈ 1.34 µM)
MIC Enterococcus faecalis (GC 3059) (Enterococcus sp.; [1]): 2 µg/mL (≈ 1.34 µM)

— patent US8247211B2, “Glycopeptide antibiotics” (American Cyanamid Company, priority 2001, dated 2012)
